# Tested on: AGSST (creeping bentgrass)
# Assay: Post-emergence herbicidal activity, cool season
# Type: in vivo, Agrostis stolonifera
# Conditions: abraded plants sprayed at 300, 100, 30 and 10 g/ha; about 14 days after treatment
# Method: (§1) In another set of tests, the post-emergence activity of compounds of this invention was evaluated on the cool season species listed above. The following procedure was used.
# (§2) A pre-prepared topsoil mixture (described above) was placed in a pot and compacted to a depth of 1.0 to 1.25 cm from the top of the pot. Seeds of each of several monocotyledonous and dicotyledonous annual plant species were placed on top of the soil. The seeds were covered with a mixture of 50% topsoil and 50% Rediearth™ in sufficient quantity to level-fill the pots. The pots were then placed on a greenhouse bench and subirrigated as needed.
# (§3) When plants growing from the seeds had emerged and reached a suitable growth stage for post-emergence treatment, typically 9 to 14 days after planting, above-ground parts of the plants were subjected to a pre-treatment involving abrasion to create greater opportunity for foliar uptake of subsequently applied compounds. Abrasion was performed using garnet 200w particles applied with a Sears Craftsman hand-held sandblaster operated at approximately 850 kPa (50 psig) pressure.
# (§4) A known amount of each test compound dissolved or suspended in an appropriate organic solvent was diluted with a 50:50 mix of acetone and water and applied to the plants by spraying with a standard spray nozzle in a spray volume of […] at a spray pressure of 511 kPa (30 psig). Only the compounds of Examples 1, 8-15 and 17-22 were included in post-emergence tests. Application rates for these compounds were 300, 100, 30 and 10 g/ha. Control plants were abraded but not sprayed.
# (§5) After treatment the plants were placed in a greenhouse with an 18/13° C. day/night temperature regime and were subsequently watered as needed for growth. Approximately 14 days after treatment, the plants were observed and herbicidal efficacy recorded as percent inhibition by comparison with control plants. GR80 values were assigned for each compound as described above for the pre-emergence tests.
row,Compound,"Post-emergence activity GR80, AGSST"
1,CCN(CC)C(=O)n1cnc(S(=O)(=O)C(F)(F)C(F)(F)SC)n1 [Example 14],300 g/ha

# Tested on: CIRAR (canada thistle (seedling))
# Assay: Pre-emergence herbicidal activity, warm season
# Type: in vivo, Cirsium arvense
# Conditions: GR80 = lowest tested rate (300, 100, 30, 10 g/ha) with 80% or greater inhibition; approx. 14 days after treating; 30/21° C.
# Procedure, shortened: (§6)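 GR80 values derive from percent inhibition relative to untreated plants, read roughly 14 days after sowing and pre-emergence soil-surface treatment (compound in 50:50 acetone/water; rates typically 10, 30, 100, 300 g/ha). Warm-season weeds grew at 30/21° C day/night, cool-season ones at 18/13° C; an asterisk marks activity without reaching 80% at the highest rate.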
row,Compound,Pre-emergence activity (GR80) CIRAR
1,CCN(CC)C(=O)n1cnc(S(=O)(=O)C(F)(F)Cl)n1 [Example 3],30 g/ha
2,CCN(CC)C(=O)n1cnc(S(=O)(=O)C(F)(F)C(=O)c2ccccc2)n1 [Example 6],300 g/ha
3,CCN(CC)C(=O)n1cnc(S(=O)(=O)C(F)(F)C(F)(F)Br)n1 [Example 4],30 g/ha
4,CCN(CC)C(=O)n1cnc(S(=O)(=O)C(F)(F)F)n1 [Example 2],300 g/ha
5,CCN(CC)C(=O)n1cnc(S(=O)(=O)C(F)(F)C(F)(F)SC)n1 [Example 14],300 g/ha

# Tested on: AEGCY (jointed goatgrass)
# Assay: Post-emergence herbicidal activity, cool season
# Type: in vivo, Aegilops cylindrica
# Conditions: abraded plants sprayed at 300, 100, 30 and 10 g/ha; about 14 days after treatment
# Method: as §1, §2, §3, §4, §5
row,Compound,"Post-emergence activity GR80, AEGCY"
1,CCN(CC)C(=O)n1cnc(S(=O)(=O)C(F)(F)C(F)(F)SC)n1 [Example 14],[empty]

# Tested on: SETFA (giant foxtail)
# Assay: Pre-emergence herbicidal activity, warm season
# Type: in vivo, Setaria faberi
# Conditions: GR80 = lowest tested rate (300, 100, 30, 10 g/ha) with 80% or greater inhibition; approx. 14 days after treating; 30/21° C.
# Procedure, shortened: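 Activity is expressed as the rate giving 80% inhibition, with 300, 100, 30 and 10 g/ha typically tested. An asterisk marks activity short of 80% at the top rate. Warm-season grasses were held at 30/21 °C; cool-season blackgrass and wild buckwheat at 18/13 °C; scoring at about 14 days.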
row,Compound,Pre-emergence activity (GR80) SETFA
1,CCN(CC)C(=O)n1cnc(S(=O)(=O)C(F)(F)Cl)n1 [Example 3],100 g/ha
2,CCN(CC)C(=O)n1cnc(S(=O)(=O)C(F)(F)C(=O)c2ccccc2)n1 [Example 6],"* (activity observed, at least at highest rate, but <80% inhibition)"
3,CCN(CC)C(=O)n1cnc(S(=O)(=O)C(F)(F)C(F)(F)Br)n1 [Example 4],30 g/ha
4,CCN(CC)C(=O)n1cnc(S(=O)(=O)C(F)(F)F)n1 [Example 2],100 g/ha
5,CCN(CC)C(=O)n1cnc(S(=O)(=O)C(F)(F)C(F)F)n1 [Example 16],30 g/ha
6,CCN(CC)C(=O)n1cnc(S(=O)(=O)C(F)(F)C(F)(F)SC)n1 [Example 14],100 g/ha

# Tested on: SINAR (wild mustard)
# Assay: Pre-plant incorporated (PPI) herbicidal activity, cool season
# Type: in vivo, Sinapis arvensis
# Conditions: pre-plant incorporated; lowest tested rate with 80% or greater inhibition; about 14 days
# Method: (§7) In another set of tests, the pre-plant incorporated (PPI) activity of compounds of this invention was evaluated on the same species as for the pre-emergence tests described above. In the PPI tests the following procedure, designed to simulate PPI application, was used.
# (§8) A pre-prepared topsoil mixture (described above) was placed in a pot and compacted to a depth of 1.0 to 1.25 cm from the top of the pot. Seeds of each of several monocotyledonous and dicotyledonous annual plant species were placed on top of the soil. A sufficient quantity of soil to cover the seeds and level fill the pot was weighed into an open container. A known amount of the test compound was dissolved or suspended in an organic solvent and applied by spraying to this cover soil. The cover soil was thoroughly mixed to distribute the test compound throughout the cover soil, and was then applied as a cover layer over the seeds. Untreated soil was used as a cover layer for control pots. After treatment the plants were placed in a greenhouse where they received 0.64 cm of overhead irrigation. All subsequent watering consisted of a light overhead mist and/or subirrigation as needed for germination and growth. Tables 9 and 10 below relate to warm season plant species which were placed after pre-emergence treatment in a greenhouse with a 30/21° C. day/night temperature regime. Tables 11 and 12 below relates to cool season plant species placed after pre-emergence treatment in a greenhouse or growth chamber with an 18/13° C. day/night temperature regime. Only the compounds of Examples 1, 6, 8, 11, 13 and 15-20 were included in PPI tests.
# (§9) Approximately 14 days after planting and treating, the plants were observed and herbicidal efficacy recorded as percent inhibition by comparison with untreated plants.
row,Compound,"PPI activity GR80, SINAR"
1,CCN(CC)C(=O)n1cnc(S(=O)(=O)C(F)(F)C(=O)c2ccccc2)n1 [Example 6],300 g/ha
2,CCN(CC)C(=O)n1cnc(S(=O)(=O)C(F)(F)C(F)F)n1 [Example 16],10 g/ha

# Same assay, conditions: weed, PPI application, 10 g/ha
row,Compound,Percent inhibition SINAR
1,CCN(CC)C(=O)n1cnc(S(=O)(=O)C(F)(F)C(F)F)n1 [Example 16],0%

# Same assay, conditions: weed, PPI application, 30 g/ha
row,Compound,Percent inhibition SINAR
1,CCN(CC)C(=O)n1cnc(S(=O)(=O)C(F)(F)Cl)n1 [Example 3],100%
2,CCN(CC)C(=O)n1cnc(S(=O)(=O)C(F)(F)C(F)(F)Br)n1 [Example 4],95%
3,CCN(CC)C(=O)n1cnc(S(=O)(=O)C(F)(F)F)n1 [Example 2],10%
4,CCN(CC)C(=O)n1cnc(S(=O)(=O)C(F)(F)C(F)F)n1 [Example 16],50%

# Same assay, conditions: weed, PPI application, 100 g/ha
row,Compound,Percent inhibition SINAR
1,CCN(CC)C(=O)n1cnc(S(=O)(=O)C(F)(F)Cl)n1 [Example 3],100%
2,CCN(CC)C(=O)n1cnc(S(=O)(=O)C(F)(F)C(F)(F)Br)n1 [Example 4],100%
3,CCN(CC)C(=O)n1cnc(S(=O)(=O)C(F)(F)F)n1 [Example 2],100%
4,CCN(CC)C(=O)n1cnc(S(=O)(=O)C(F)(F)C(F)F)n1 [Example 16],100%

# Same assay, conditions: weed, PPI application, 300 g/ha
row,Compound,Percent inhibition SINAR
1,CCN(CC)C(=O)n1cnc(S(=O)(=O)C(F)(F)Cl)n1 [Example 3],100%
2,CCN(CC)C(=O)n1cnc(S(=O)(=O)C(F)(F)C(F)(F)Br)n1 [Example 4],100%
3,CCN(CC)C(=O)n1cnc(S(=O)(=O)C(F)(F)F)n1 [Example 2],100%
4,CCN(CC)C(=O)n1cnc(S(=O)(=O)C(F)(F)C(F)F)n1 [Example 16],100%

# Same assay, conditions: weed, PPI application, 900 g/ha
row,Compound,Percent inhibition SINAR
1,CCN(CC)C(=O)n1cnc(S(=O)(=O)C(F)(F)Cl)n1 [Example 3],100%
2,CCN(CC)C(=O)n1cnc(S(=O)(=O)C(F)(F)C(F)(F)Br)n1 [Example 4],100%
3,CCN(CC)C(=O)n1cnc(S(=O)(=O)C(F)(F)F)n1 [Example 2],100%
4,CCN(CC)C(=O)n1cnc(S(=O)(=O)C(F)(F)C(F)F)n1 [Example 16],100%

# Tested on: SOLNI (black nightshade)
# Assay: Pre-emergence herbicidal activity, warm season
# Type: in vivo, Solanum nigrum
# Conditions: GR80 = lowest tested rate (300, 100, 30, 10 g/ha) with 80% or greater inhibition; approx. 14 days after treating; 30/21° C.
# Procedure, shortened: as §6
row,Compound,Pre-emergence activity (GR80) SOLNI
1,CCN(CC)C(=O)n1cnc(S(=O)(=O)C(F)(F)Cl)n1 [Example 3],100 g/ha
2,CCN(CC)C(=O)n1cnc(S(=O)(=O)C(F)(F)C(F)(F)Br)n1 [Example 4],300 g/ha
3,CCN(CC)C(=O)n1cnc(S(=O)(=O)C(F)(F)F)n1 [Example 2],300 g/ha
4,CCN(CC)C(=O)n1cnc(S(=O)(=O)C(F)(F)C(F)F)n1 [Example 16],100 g/ha
5,CCN(CC)C(=O)n1cnc(S(=O)(=O)C(F)(F)C(F)(F)SC)n1 [Example 14],300 g/ha

# Tested on: ABUTH (velvetleaf)
# Assay: Pre-plant incorporated (PPI) herbicidal activity, warm season
# Type: in vivo, Abutilon theophrasti
# Conditions: PPI application, 10 g/ha
# Method: as §7, §8, §9
row,Compound,Percent inhibition ABUTH
1,CCN(CC)C(=O)n1cnc(S(=O)(=O)C(F)(F)C(F)F)n1 [Example 16],0%

# Same assay, conditions: PPI application, 30 g/ha
row,Compound,Percent inhibition ABUTH
1,CCN(CC)C(=O)n1cnc(S(=O)(=O)C(F)(F)Cl)n1 [Example 3],0%
2,CCN(CC)C(=O)n1cnc(S(=O)(=O)C(F)(F)C(F)(F)Br)n1 [Example 4],0%
3,CCN(CC)C(=O)n1cnc(S(=O)(=O)C(F)(F)F)n1 [Example 2],0%
4,CCN(CC)C(=O)n1cnc(S(=O)(=O)C(F)(F)C(F)F)n1 [Example 16],0%

# Same assay, conditions: PPI application, 100 g/ha
row,Compound,Percent inhibition ABUTH
1,CCN(CC)C(=O)n1cnc(S(=O)(=O)C(F)(F)Cl)n1 [Example 3],0%
2,CCN(CC)C(=O)n1cnc(S(=O)(=O)C(F)(F)C(F)(F)Br)n1 [Example 4],0%
3,CCN(CC)C(=O)n1cnc(S(=O)(=O)C(F)(F)F)n1 [Example 2],0%
4,CCN(CC)C(=O)n1cnc(S(=O)(=O)C(F)(F)C(F)F)n1 [Example 16],0%

# Same assay, conditions: PPI application, 300 g/ha
row,Compound,Percent inhibition ABUTH
1,CCN(CC)C(=O)n1cnc(S(=O)(=O)C(F)(F)Cl)n1 [Example 3],30%
2,CCN(CC)C(=O)n1cnc(S(=O)(=O)C(F)(F)C(F)(F)Br)n1 [Example 4],20%
3,CCN(CC)C(=O)n1cnc(S(=O)(=O)C(F)(F)F)n1 [Example 2],20%
4,CCN(CC)C(=O)n1cnc(S(=O)(=O)C(F)(F)C(F)F)n1 [Example 16],30%

# Same assay, conditions: PPI application, 900 g/ha
row,Compound,Percent inhibition ABUTH
1,CCN(CC)C(=O)n1cnc(S(=O)(=O)C(F)(F)Cl)n1 [Example 3],60%
2,CCN(CC)C(=O)n1cnc(S(=O)(=O)C(F)(F)C(F)(F)Br)n1 [Example 4],70%
3,CCN(CC)C(=O)n1cnc(S(=O)(=O)C(F)(F)F)n1 [Example 2],75%
4,CCN(CC)C(=O)n1cnc(S(=O)(=O)C(F)(F)C(F)F)n1 [Example 16],95%

# Same assay, conditions: pre-plant incorporated; GR80 = lowest tested rate with 80% or greater inhibition; approx. 14 days after treating; 30/21° C.
row,Compound,PPI activity (GR80) ABUTH
1,CCN(CC)C(=O)n1cnc(S(=O)(=O)C(F)(F)C(F)F)n1 [Example 16],100 g/ha

# From patent US6461997B1, “Triazole sulfones having herbicidal activity” (Monsanto Technology LLC, priority 1999, dated 2002)
